Assay results from patent US20230227477A1, “COMPOUNDS FOR SENSING REACTIVE OXYGEN SPECIES AND METHODS FOR USING THE SAME” (WAKE FOREST UNIVERSITY HEALTH SCIENCES, priority 2020, published 2023).

Experiments:
HeLa cells [1] = assay: Protective effects on HeLa cells under H2O2-induced oxidative stress (CCK-8 viability); assay type: cell-based, human
Procedure: Next, the protective effects of compound RAH393 on cultured HeLa cells which were under oxidative stress were examined. A population of cells (>6×10^6 cells/mL as determined with a hemocytometer) was diluted with FBS-free DMEM:F12-K, 1:1, 1% penicillin-streptomycin, and 1% L-glutamine to give a final concentration of 50,000 cells/mL. To a 96-well plate was added 100 μL of cell media solution resulting in a total of 5 k cells per well. Plates were then incubated at 37° C. in an atmosphere of 5% CO2 and 95% humidified air for 24 h. Confluent cells were then pre-incubated in FBS-free media with compound RAH393 (or compound 5) (200 μM) for 1 h followed by treatment with H2O2 (200 μM) for an additional 1 h incubation period. Control wells with H2O2 alone (200 μM) were also evaluated on the same plate. After a total incubation period of 2 h, cell contents were then replaced with 100 μL of fresh FBS-free media with 10% CCK-8. Cells were then incubated for 3 h at 37° C. and cell viability was assessed by measuring the resulting absorbance at 450 nm using a 96-well plate reader (BioTek SYNERGY-HTX multi-mode reader, Winooski, Vt.).

[2] = Persulfide release from compounds 4a and 4b with H2O2 monitored by fluorescence; assay type: physicochemical; settings: 20 μM compound; for change of relative fluorescence intensity over time with H2O2 (in words): 200 μM H2O2, PBS pH 7.4, 37° C., 3 hours
Procedure: Referring to FIGS. 6A and 6B, compounds 4a and 4b (20 μM) were exposed to H2O2 (200 μM) in PBS buffer (pH 7.4) at 37° C. and the resulting fluorescence intensity was monitored over a period of 3 hours. Immediately prior to use, a 200 μM stock solutions of compound 4a and compound 4b were prepared in cell-grade dimethylsulfoxide (DMSO), and a 200 μM stock of cetyltrimethylammonium bromide (CTAB) was prepared in PBS buffer (pH 7.4). Next, a 2 mM hydrogen peroxide stock solution was prepared by diluting 30% hydrogen peroxide in freshly degassed PBS Buffer (pH 7.4). 30 μL of compound 4a (or compound 4b) was then added to a 96 well plate and diluted with 90 μL of PBS buffer and 150 μL of the CTAB stock solution. The assay was then initiated by the addition of 30 μL, of the 2 mM hydrogen peroxide stock solution rendering a final concentration of 20 μM for compound 4a (or compound 4b), 200 μM of hydrogen peroxide, and 100 μM of CTAB. The control reactions without peroxide were conducted by adding 30 μL of the 200 μM stock of compound 4a to a 96 well plate and diluting with 120 μL of PBS buffer and 150 μL of 200 μM CTAB to make a final concentration of 20 μM of compound 4a and 100 μM of CTAB. The plate was inserted into a 96-well plate reader (BioTek SYNERGY-HTX multi-mode reader, Winooski, Vt.) heated to 37° C., and agitated to ensure homogeneity. The plate was read continuously using a 360/40 nm fluorescence filter and values were recorded as the mean+/−STDEV from three experiments.

HeLa cells [3] = assay: Cytotoxicity in HeLa cells (phosphatase assay); assay type: cell-based, human; settings: various concentrations, 5 h incubation
Procedure: First, compound RAH393 and lactone compound 3 were tested for cytotoxicity in HeLa cells. A population of cells (>6×10^6 cells/mL as determined with a hemocytometer) was diluted with FBS-free DMEM:F12-K, 1:1, 1% penicillin-streptomycin, and 1% L-glutamine to give a final concentration of 50,000 cells/mL. To a 96-well plate was added 100 μL of cell media solution resulting in a total of 5 k cells per well. Plates were then incubated at 37° C. in an atmosphere of 5% CO2 and 95% humidified air for 24 h. Fresh culture media (100 μL) was then added to each well of cells resulting in 200 μL of media per well followed by the addition of compound RAH393 or compound 3 at various concentrations (20 mM stock in biological-grade DMSO, resulting in no more than 1% DMSO per well). After incubating for 5 h, a phosphatase assay was used to establish cell viability as follows: Media was removed from each well and replaced with 100 μL of phosphatase solution (100 mg of phosphatase substrate, in 30 mL of 0.1 M NaOAc, pH 5.5, 0.1% Triton X-100 buffer). Following an incubation period of 30 min, 50 μL of 0.10 M NaOH was added to each well and viability was assessed spectrophotometrically at 405 nm using a 96-well plate reader (BioTek SYNERGY-HTX multi-mode reader, Winooski, Vt.). Assays were performed in triplicate and presented as the mean+/−STDEV.

[4] = Turn-on fluorescence response of compounds 1a, 1b, 1c in PBS buffer alone and with H2O2; assay type: physicochemical; settings: for fluorescence (ex: 330 nm, em: 452 nm), in the presence of 1 mM H2O2 / fluorescence (ex: 330 nm, em: 452 nm), PBS Buffer alone / turn-on fluorescence response towards H2O2 (in words): 20 μM probe; for fluorescence (ex: 330 nm, em: 452 nm), in the presence of 1 mM H2O2 / fluorescence (ex: 330 nm, em: 452 nm), PBS Buffer alone: PBS pH 7.4, 37° C., 180 min; for fluorescence (ex: 330 nm, em: 452 nm), PBS Buffer alone: no H2O2; for turn-on fluorescence response towards H2O2 (in words): 1 mM H2O2 vs PBS alone, 3 h
Procedure: Stock solutions of each probe (compounds 1a, 1b, 1c) at 222.2 μM were prepared in 200-proof ethanol. In addition, a 100 mM hydrogen peroxide stock solution was prepared in freshly degassed 1× PBS buffer (pH 7.4) immediately prior to use. Each reaction vial was prepared using 21.6 mL of PBS buffer, 2160 μL of compound 1a (or compound 1b or 1c) stock solution, and 240 μL of 100 mM hydrogen peroxide stock solution to give final concentrations of 20 μM of compound 1a (or compound 1b or 1c) and 1 mM of hydrogen peroxide. A control sample was prepared using 2160 μL of compound 1a (or 1b or 1c) stock solution in ethanol and diluted with 21.84 mL of freshly degassed 1× PBS buffer to give a final concentration of 20 μM of compound 1a (or 1b or 1c). The reaction and control vials were heated to 37° C. and agitated with a stir bar. At 180 min, 4 mL aliquots were transferred from reaction and control vials to individual quartz cuvettes. Fluorescence measurements (ex: 330 nm, em: 452 nm) were recorded as the mean+/−STDEV from three experiments. Referring to FIG. 3, the results for each of compounds 1a, 1b, and 1c was as follows—(1a): (1) PBS Buffer alone: 3.85+/−0.58; (2) In the presence of 1 mM H2O2: 97.01+/−12.97. (1b): (1) PBS Buffer alone: 0.55+/−0.27; (2) In the presence of 1 mM H2O2: 8.14+/−3.13. (1c): (1) PBS Buffer alone: 102.35+/−0.73; (2) In the presence of 1 mM H2O2: 129.54+/−0.55.

[5] = Rate of coumarin release from compound 1a with H2O2 (fluorescence, plate reader); assay type: physicochemical; settings: 20 μM compound 1a, 1000 μM H2O2, PBS pH 7.4, 37° C.
Procedure: Referring to FIG. 2A, initially appending a coumarin ester to the H2O2-responsive scaffold of compound 1a, it was hypothesized that the release of payload, in response to H2O2, could be monitored via fluorescence spectroscopy while recording the resulting increase in fluorescence intensity upon excitation at 7-hydroxycoumarin's λmax. Therefore, to initially assess the reactivity of the scaffold towards peroxides, compound 1a (20 μM) and H2O2 (1000 μM) was incubated in PBS buffer (pH 7.4) at 37° C. Specifically, immediately prior to use, a 5 mM stock solution of hydrogen peroxide was prepared in freshly degassed 1× PBS buffer (pH 7.4) using reagent grade H2O2 (30% solution). A 200 μM stock solution of probe compound 1a was prepared in 200-proof ethanol. The rate of coumarin release was measured using concentrations of 20 μM compound 1a and 1000 μM H2O2 by adding 30 μL of the probe stock solution, 60 μL of hydrogen peroxide stock solution and 210 μL of PBS buffer (pH 7.4) to each well of a 96 well plate. The plate was inserted into a 96-well plate reader (BioTek SYNERGY-HTX hybrid multi-mode reader, Winooski, Vt.), heated to 37° C., and agitated to ensure homogeneity. The plate was read continuously using a 360/40 nm fluorescence filter and values were recorded as the mean+/−STDEV from three experiments.
To further establish the proposed mechanistic pathway, lactone compound 3 (see FIG. 2A) was isolated and characterized as a definitive byproduct of this transformation. […] Compound 3 was formed as described below.

[6] = DNFB trapping of released persulfide, LCMS (validation as ROS-activated persulfide donor); assay type: physicochemical; settings: 200 μM compound, 1 mM DNFB; for formation of trapped disulfide compound 7 (persulfide release), LCMS: 1 mM H2O2, ammonium bicarbonate buffer, room temperature
Procedure: Initially, 5 mM stock solutions of compound RAH393, compound 5, and 2,4-dinitrofluorobenzene (DNFB) were prepared in 200-proof ethanol. In addition, a 100 mM stock solution of hydrogen peroxide in ammonium bicarbonate buffer (1 mM, pH 7.0) was prepared immediately prior to use. To a conical vial containing 1500 μL of 1M ammonium bicarbonate was then added 80 μL of the 5 mM stock of compound RAH393 (or control compound 5), 400 μL of the 5 mM DNFB stock, and 20 μL of 100 mM hydrogen peroxide giving a final concentrations of 200 μM compound RAH393 (or compound 5), 1 mM DNFB, and 1 mM H2O2. At the designated timepoints, a 100 μL aliquot of the room-temperature reaction was diluted with 900 μL of HPLC-grade methanol with 0.1% formic acid for analysis. 75 μL of the resultant solution was then injected onto C18 reverse phase column (Agilent Technologies, SB-C18 Analytical HPLC Col. 4.6×150) and eluted with HPLC-grade methanol (0.1% formic acid) and HPLC-grade water (0.1% formic acid) at a flow rate of 200 μL/min using the following gradient: 0-2 min, 90:10 water:methanol; 2-8 min, 40:60 water:methanol; 8-30 min, 10:90 water:methanol; 30-40 min, 5:95 water:methanol. Retention times of lactone compound 3 (25.0 min), compound RAH393 (35.6 min), compound 5 (27.7 min), and DNFB (16.5 min) were independently validated. When this assay was run using compound RAH393, in addition to compound 7 (21.7 min), the tri- and tetrasulfides of N-acetylcysteamine were also present (14.1 min and 16.2 min, respectively), further confirming persulfide release from compound RAH393.

## OO [H2O2, hydrogen peroxide, reference compound]
HeLa cells [1]; 200 μM H2O2 alone, 1 hour
  cell viability: 33%

## CC(C)(Cc1ccccc1B1OC(C)(C)C(C)(C)O1)C(=O)SSc1ccccc1C(=O)Oc1ccc2ccc(=O)oc2c1 [compound 4a]
[2]; 200 μM H2O2, 100 μM CTAB, PBS pH 7.4, 37° C.
  kobs (pseudo first-order rate constant): 0.012 min⁻¹
[2]
  change of relative fluorescence intensity over time with H2O2 (in words): significantly increase over time
[2]; no H2O2, 100 μM CTAB, 37° C.
  fluorescence profile in PBS buffer alone (in words): nearly identical fluorescence profile to that of compound 4b
[2]; PBS buffer with 200 μM H2O2 and 100 μM CTAB, 200 μM H2O2, 100 μM CTAB, PBS pH 7.4, 37° C., pseudo first-order, read-out: half-life of reaction with H2O2 (persulfide release)
  half-life at 20 μM: 60.5 min

## CC1(C)Cc2ccccc2OC1=O [compound 3]
HeLa cells [3]
  cytotoxicity toward HeLa cells (in words): neither compound RAH393 nor lactone compound 3 were toxic

## CC(C)(Cc1ccccc1)C(=O)SSc1ccccc1C(=O)Oc1ccc2ccc(=O)oc2c1 [compound 4b]
[2]
  change of relative fluorescence intensity over time with H2O2 (in words): trivial

## CC1(C)OB(c2ccccc2CCC(=O)Oc2ccc3ccc(=O)oc3c2)OC1(C)C [compound 1c]
[4]
  fluorescence (ex: 330 nm, em: 452 nm), in the presence of 1 mM H2O2: 129.54+/−0.55
  fluorescence (ex: 330 nm, em: 452 nm), PBS Buffer alone: 102.35+/−0.73
[4]; PBS buffer alone, pH 7.4, 37° C.
  susceptibility to hydrolysis (in words): highly susceptible to hydrolysis

## CC(C)(Cc1ccccc1)C(=O)Oc1ccc2ccc(=O)oc2c1 [compound 1b]
[4]
  turn-on fluorescence response towards H2O2 (in words): no turn-on response
  fluorescence (ex: 330 nm, em: 452 nm), in the presence of 1 mM H2O2: 8.14+/−3.13
  fluorescence (ex: 330 nm, em: 452 nm), PBS Buffer alone: 0.55+/−0.27

## CC(C)(Cc1ccccc1B1OC(C)(C)C(C)(C)O1)C(=O)Oc1ccc2ccc(=O)oc2c1 [compound 1a]
[4]
  turn-on fluorescence response towards H2O2 (in words): selective turn-on fluorescence response towards H2O2
  fluorescence (ex: 330 nm, em: 452 nm), in the presence of 1 mM H2O2: 97.01+/−12.97
  fluorescence (ex: 330 nm, em: 452 nm), PBS Buffer alone: 3.85+/−0.58
[5]
  time at which fluorescence intensity reached a maximum (complete release of coumarin reporter): roughly 1 h
[5]; pseudo first-order
  kobs: 0.024 min⁻¹
[5]; PBS buffer with 1000 μM H2O2, pseudo first-order, read-out: half-life (t1/2) of reaction with H2O2
  half-life at 20 μM: 29.3 min

## CC(=O)NCCSSC(=O)C(C)(C)Cc1ccccc1 [compound 5]
HeLa cells [1]; pre-treatment 200 μM compound 1 h, then 200 μM H2O2 1 h
  protection against H2O2-induced oxidative stress (in words): no protection
[6]
  formation of trapped disulfide compound 7 (persulfide release), LCMS: unsuccessful in yielding compound 7

## CC(=O)NCCSSC(=O)C(C)(C)Cc1ccccc1B1OC(C)(C)C(C)(C)O1 [compound RAH393]
HeLa cells [1]; pre-treatment 200 μM compound 1 h, then 200 μM H2O2 1 h, vs H2O2 alone
  increase in cell viability: 100%
HeLa cells [3]
  cytotoxicity toward HeLa cells (in words): neither compound RAH393 nor lactone compound 3 were toxic
[6]
  formation of trapped disulfide compound 7 (persulfide release), LCMS: formation of disulfide compound 7 was confirmed
[6]; 1 mM H2O2, over a period of 25 min
  production of lactone compound 3, LCMS (in words): linear increase in the production of lactone compound 3
